Experimental data: US20060046972A1, “Cytotoxic nucleoside analog compound 003 for treating cancer” (Parker Hughes Institute, priority 2004, published 2006)

Assays:
U373 glioblastoma cells = assay: Confocal laser scanning microscopy of mitotic spindle, U373; format: cell-based, human; details: 100 μM
Procedure: (§1) Immunofluorenscence was used to examine the spindle features of human cancer cell lines treated with Compound 003 or 0.5% DMSO. Initially, cells at log phase were seeded onto sterile 22 mm coverslips in six -well culture plates. 24 hours later, the cells were treated with compound 003 for 2 hours at 37° C., 5% C02, fixed in methanol (−20° C. 15 min) followed by a 15 minute incubation with PBS +0.1.% Tx-100. The coverslips were incubated with antibodies raised against α-tubulin, γ-tubulin (Sigma Chemical Co., St Louis, Mo.) (40 min 37° C.), washed in PBS-Tx-100, and incubated with an appropriate secondary antibody conjugated to FITC (Jackson ImmunoResearch, Westgrove, Pa.). Cellular DNA was labeled with 5 μM TOTO3 (Molecular Probes, Eugene, Oreg.) for 20 minutes. Coverslips were immediately inverted onto slides in Vectashield (Vector Labs, Burlingame, Calif.) to prevent photobleaching, sealed with nail varnish and stored at −20° C. The slides were examined using a Bio-Rad MRC-1024 Laser Scanning Confocal Microscope equipped with a Kr/Ar laser (BioRad, Hercules, Calif.) mounted on a Nikon Eclipse E800 upright microscope with high numerical aperture objectives (Nikon, Melville, N.Y.). Digital data were processed using Lasersharp (BioRad) and Adobe Photoshop software (Adobe Systems, Mountain View, Calif.). […]

[1] = tested on: MDA-MB breast cancer cells; assay: Confocal laser scanning microscopy of mitotic spindle, MDA-MB; format: cell-based, human
Procedure: as §1

Stability in plasma = format: in vitro ADME
Procedure: Plasma samples, simulated gastric fluid and intestinal fluids (United State Pharmacopeia XXII methods) were separately spiked with COMPOUND 003 to yield final concentrations of 500 μM. Spiked samples were incubated at 37° C. At a predetermined time (5, 10, 15, 30 60 and 120 minutes), an aliquot (200 μl) of the spiked plasma sample was extracted as described above.

[2] = Pharmacokinetics in CD-1 mice after intravenous or oral Compound 003; format: in vivo
Procedure: Each plasma sample (200 μL) was mixed 1:4 with acetone (800 μL) and vortexed for at least 30 seconds. Following centrifugation, the supernatant was transferred into a clean tube and dried under nitrogen. A 50 μL solution of 50% methanol in 200 mM HCl was used to reconstitute the extraction residue, and 35 μL was subjected to analytical HPLC. The analytical column used was a 250×4 mm Lichrospher 100, RP-18 (5 μm) and the guard column was a 4×4 mm Lichrospher 100, RP-18 (5 μm). The mobile phase was degassed automatically by the electronic degasser system. The column was equilibrated and eluted under gradient conditions utilizing a flow rate of 1.0 ml/min at ambient temperature. The linear gradient mobile phase was: 0 minute, 100% 10 mM ammonium phosphate buffer (pH 3.7); 20 minutes, 20% acetonitrile, 80% ammonium phosphate buffer (pH 3.7); 20.1-50 minutes, 28% acetonitrile, 72% water (0.1% HAC). The wavelength of detection was set at 270 nm. Peak width, response time and slit werep, set at >0.03 minutes, 0.5 s and 8 nm, respectively.
Female CD-1 mice (6-8 weeks old) (Charles River, Wilmington, Mass.) were housed in a USDA-accredited animal care facility under standard environmental conditions (12-h light/12-h dark photoperiod, 22±1° C., 60±10% relative humidity). All rodents were housed in microisolator cages (Lab Products, Inc., N.J.) containing autoclaved bedding. Mice were allowed free access to autoclaved pellet food and tap water throughout the study. All animal studies are approved by the Parker Hughes Institute Animal Care and Use Committee, and all animal care procedures conformed to the principles outlined in the Guide for the Care and Use of Laboratory Animals (National Research Council;. National Academy Press, Washington D.C. 1996).
Compound 003 (200 mg/kg) dissolved in DMSO was administered intravenously via tail vein to non-fasted mice or orally via gavage to 12-h fasted mice. Four to six mice per time-point were used for pharmacokinetic studies. Blood samples (˜500 μL) were obtained from the ocular venous plexus by retro-orbital venipuncture at 0, 5, 10, 15, 30, 45 minutes, and 1 h, 1.5 h, 2 h, 4 h, 6 h and 8 h after oral administration. All collected blood-samples were heparinized and centrifuged at 7000×g for 5 minutes to separate the plasma fraction from the whole blood. The plasma samples were then processed immediately using the extraction procedure described above.
Pharmacokinetic modeling and parameter calculations were carried out using the WinNonlin Professional Version 3.0 (Pharsight, Inc., Mountain, Calif.) pharmacokinetics software (Chen, C. L., et al., (1999) Pharm Res. 16:117; Chen, C. L., et al., (1999) Pharm Res. 16:1003; Uckun, F. M., et al., (1999) Clin Cancer Res. 5:2954). An appropriate model was chosen on the basis of the lowest sum of weighted squared residuals, the lowest Schwartz Criterion (SC), the lowest Akaike's Information Criterion (AIC) value, the lowest standard errors of the fitted parameters, and the dispersion of the residuals. The elimination half-life was estimated by linear regression analysis of the terminal phase of the plasma concentration-time profile. The systemic clearance (CL) was determined by dividing the dose by the AUC.

[3] = tested on: human T leukemia/lymphoma (JURKAT); assay: DNA flow cytometry of cell cycle arrest, JURKAT; format: cell-based; details: 100 μM, 48 hour
Procedure: Exponentially growing tumor cells were cultured at 1×10^6 cells/ml in clonogenic medium (RPMI 1640 medium +1% penicillin/streptomycin +10% heat-inactivated fetal bovine serum, 2 mML-glutamine, and 10 mM Hepes buffer) in the presence or absence of 100 μM compound 003 for 48 hour at 37° C., 5% CO2. At 48 h, cells were washed two times in fresh clonogenic medium, trypsinized, fixed in ice cold ethanol and labeled with propidium iodide to quantify their DNA content, as described previously (See, for example, Navara, et al., 2001, Anticancer Drugs. 12:369). Quantitative DNA analysis was performed on a Becton Dickenson Calibur flow cytometer equipped with a Consort 40 computer using the COTFIT program, which includes CELLCY, a cell cycle distribution function that fits DNA content histograms and calculates-the percentages of cells in G, S, and GM phases of the cell cycle, as described, for example, in Uckun et al., 1996, J Biol Chem. 271, 6389.

COC(=O)C(C)NP(=O)(OCC1OC(n2cc(C)c(=O)[nH]c2=O)CC1N=[N+]=[N-])Oc1ccc(OC)cc1 (centres unmarked) [Compound 003, 3′-azidothymidine 5′-[p-methoxyphenylmethoxyalaninyl phosphate]]
mitotic spindle formation (U373 glioblastoma cells): induced aberrant multipolar spindle formation
mitotic spindle formation [1]: induced aberrant multipolar (instead of normal bipolar) spindle formation
decomposition product (Stability in plasma): decomposed to mainly form ala-AZT-MP
stability (Stability in plasma; 500 μM, 37° C.): unstable in plasma
share of Compound 003 decomposed (Stability in plasma; 500 μM, 37° C., within 5 minutes): > 99%
in vivo transformation of parent compound ([2]; i.v. injection of 200 mg/kg): immediately transformed to Ala-AZT-MP and AZT
plasma concentration of parent compound ([2]; oral 200 mg/kg, below the detection limit): < 500 nM
cell cycle arrest [3]: G2M cell cycle arrest
